Data from the supplement of paper PMC10307832.

Key:
Test in all cases: relative viability (nuclei count vs DMSO), 5 days (fraction); higher = more cells survive
Tozasertib + Foretinib = compound: Cc1cc(Nc2cc(N3CCN(C)CC3)nc(Sc3ccc(NC(=O)C4CC4)cc3)n2)n[nH]1 [Tozasertib] + COc1cc2c(Oc3ccc(NC(=O)C4(C(=O)Nc5ccc(F)cc5)CC4)cc3F)ccnc2cc1OCCCN1CCOCC1 [Foretinib] (partner 0.25 µM)
How it was run: (§1)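 Medians of duplicate plates are given as relative viability. That measure is the nuclei count in treated wells divided by the count in vehicle wells. Counts were taken on 4× images of lung cancer cell lines in 1536-well plates, 5 days after pin-tool dosing the day after seeding with one drug alone or a fixed anchor-drug dose plus five library-drug doses (not always all listed) in √10 steps.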

Tozasertib + Linsitinib = compound: Cc1cc(Nc2cc(N3CCN(C)CC3)nc(Sc3ccc(NC(=O)C4CC4)cc3)n2)n[nH]1 [Tozasertib] + C[C@]1(O)C[C@@H](c2nc(-c3ccc4ccc(-c5ccccc5)nc4c3)c3c(N)nccn32)C1 [Linsitinib] (partner 1 µM)
How it was run: as §1

Tozasertib + Pictilisib = compound: Cc1cc(Nc2cc(N3CCN(C)CC3)nc(Sc3ccc(NC(=O)C4CC4)cc3)n2)n[nH]1 [Tozasertib] + CS(=O)(=O)N1CCN(Cc2cc3nc(-c4cccc5[nH]ncc45)nc(N4CCOCC4)c3s2)CC1 [Pictilisib] (partner 1 µM)
How it was run: as §1

Tozasertib = compound: Cc1cc(Nc2cc(N3CCN(C)CC3)nc(Sc3ccc(NC(=O)C4CC4)cc3)n2)n[nH]1 [Tozasertib]
How it was run: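 For viability, nuclei in each treated well were divided by nuclei in vehicle wells and the median across plates was taken. Lung cancer cell lines in 1536-well plates were pinned with five library-drug doses (not always all listed) spaced by √10, cultured 5 days without medium change, and imaged at 4× after Hoechst staining, with plates passing only at control CV below 25% and at least one doubling.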

Cell Line | relative viability (Tozasertib + Foretinib; first compound 0.004 µM) | relative viability (Tozasertib + Foretinib; first compound 0.04 µM) | relative viability (Tozasertib + Foretinib; first compound 0.1265 µM) | relative viability (Tozasertib + Linsitinib; first compound 0.004 µM) | relative viability (Tozasertib + Linsitinib; first compound 0.01265 µM) | relative viability (Tozasertib + Linsitinib; first compound 0.04 µM) | relative viability (Tozasertib + Linsitinib; first compound 0.1265 µM) | relative viability (Tozasertib + Pictilisib; first compound 0.004 µM) | relative viability (Tozasertib + Pictilisib; first compound 0.01265 µM) | relative viability (Tozasertib + Pictilisib; first compound 0.04 µM) | relative viability (Tozasertib + Pictilisib; first compound 0.1265 µM) | relative viability (Tozasertib; 0.004 µM) | relative viability (Tozasertib; 0.01265 µM) | relative viability (Tozasertib; 0.04 µM) | relative viability (Tozasertib; 0.1 µM, anchor plate) | relative viability (Tozasertib; 0.1265 µM) | relative viability (Tozasertib + Foretinib; first compound 0.01265 µM)
NCI-H650 | 1.14 | 1.02 | 0.879 | 0.967 | 0.771 | 0.754 | 0.513 | 0.917 | 0.813 | 0.823 | 0.756 | 0.993 | 0.934 | 0.918 | 0.724 | 0.606 | 
NCI-H1975 | 1 | 1.03 | 0.844 | 0.961 | 1.06 | 1.04 | 0.953 | 0.323 | 0.278 | 0.295 | 0.238 | 1.04 | 0.91 | 1.06 | 0.759 | 0.85 | 1.03
HCC-366 |  | 0.63 | 0.0962 | 0.766 | 0.6 | 0.755 | 0.101 | 0.106 | 0.135 | 0.122 | 0.0817 | 0.991 | 1.01 | 1.08 | 0.123 | 0.93 | 0.912
NCI-H1703 | 0.36 | 0.337 | 0.327 | 1.26 | 0.833 | 0.808 | 0.626 | 0.287 | 0.221 | 0.248 | 0.23 | 1.04 | 0.857 | 1.21 |  | 0.556 | 0.409
A549 |  | 0.871 | 0.251 | 0.461 | 0.511 | 0.71 | 0.33 | 0.529 | 0.463 | 0.517 | 0.0954 | 1.02 | 0.982 | 1.05 |  | 0.488 | 0.823
PC-3 [JPC-3] | 1 | 1.07 | 0.961 | 0.902 | 0.935 | 0.971 | 0.972 | 0.657 | 0.724 | 0.732 | 0.598 | 0.918 | 0.981 | 1.05 | 0.88 | 0.733 | 1.06
NCI-H1944 | 0.876 | 0.72 | 0.459 | 1.12 | 1.25 | 1.18 | 0.798 | 0.36 | 0.339 | 0.331 | 0.275 | 1.01 | 0.963 | 0.901 | 0.263 | 0.526 | 0.753
NCI-H727 | 1.02 | 0.958 | 0.689 | 0.258 | 0.287 | 0.368 | 0.236 | 0.357 | 0.354 | 0.391 | 0.299 | 1.15 | 0.879 | 1.11 | 0.667 | 0.78 | 0.984
SK-LU-1 | 0.889 | 0.862 | 0.752 | 1.32 | 1.09 | 1.03 | 0.957 | 0.71 | 0.508 | 0.639 | 0.458 | 1.09 | 1.11 | 1.14 | 0.334 | 0.964 | 0.874
A-427 | 1.03 | 1 | 0.594 | 1.16 | 0.996 | 1.12 | 0.826 | 0.676 | 0.585 | 0.814 | 0.168 | 1.04 | 0.911 | 1.08 | 0.212 | 0.505 | 0.935
NCI-H2087 | 1.16 | 1.15 | 0.613 | 0.925 | 1.13 | 1.08 | 0.841 | 0.928 | 0.885 | 0.933 | 0.714 | 1.16 | 1.02 | 1.11 | 0.254 | 0.581 | 0.796
HARA |  | 1.03 | 0.145 | 1 |  | 1.01 | 0.374 | 0.421 | 0.44 | 0.373 | 0.243 | 0.981 |  | 1.01 | 0.11 | 0.519 | 0.824
ABC-1 | 0.988 | 0.838 | 0.381 | 0.831 |  | 0.554 | 0.767 | 0.782 |  | 0.625 | 0.291 | 1.02 | 0.858 | 0.767 | 0.186 | 0.412 | 1.27
NCI-H1734 | 0.888 | 0.824 | 0.414 | 0.894 | 0.938 | 0.938 | 0.616 | 0.528 | 0.494 | 0.518 | 0.401 | 1.01 | 0.957 | 0.95 | 0.266 | 0.504 | 
SK-MES-1 | 0.934 | 0.884 | 1.03 | 1.1 | 1.02 | 1.14 | 1.1 | 0.401 | 0.302 | 0.35 | 0.326 | 1.03 | 1 | 1.1 | 0.885 | 0.955 | 0.814
NCI-H596 | 0.827 | 0.864 | 0.766 | 1.08 | 0.979 | 1.15 | 1.03 | 0.399 | 0.395 | 0.395 | 0.332 | 0.993 | 0.883 | 1.01 | 0.919 | 0.988 | 0.916
BEN | 1.02 | 0.678 | 0.493 | 1.08 | 0.948 | 0.927 | 0.85 | 0.56 | 0.575 | 0.66 | 0.456 | 1.11 | 0.921 | 1.06 |  | 0.759 | 0.463
HCC-78 | 0.678 | 0.587 | 0.466 | 0.661 | 0.452 | 0.588 | 0.439 | 0.235 | 0.203 | 0.202 | 0.171 | 1.1 | 0.819 | 1.09 | 0.464 | 0.806 | 0.708
NCI-H2228 | 0.947 | 0.851 | 0.356 | 0.526 |  | 0.766 | 0.557 | 0.509 |  | 0.326 | 0.355 | 1.08 | 1.07 | 1.03 | 0.265 | 0.607 | 0.803
